Assay results as given in patent publication US3966824A, “P,P'-Disubstituted α-trichloromethylbenzylphenyl ethers” (University of Illinois Foundation, priority 1974, dated 1976).
Entries after “also recorded” stand apart in the source; their conditions may differ.

Tests used:
[1] = test system: Musca domestica SNAIDM; assay: Topical toxicity to adult female SNAIDM (susceptible) houseflies, alone and with piperonyl butoxide; assay type: in vivo, Musca domestica L.; conditions: for SR (synergistic ratio), Musca domestica SNAIDM: LD50 alone / LD50 synergized with piperonyl butoxide; for LD50: Musca domestica, alone; for LD50 / Topical LD50, Musca domestica SNAIDM, pb: SNAIDM strain, topical; for Topical LD50, Musca domestica SNAIDM, pb: synergized with piperonyl butoxide (pb)
Procedure: (§1) The compounds of the present invention were tested for insecticidal activity by standard methods, and compared with the insecticidal activities of DDT and symmetrical analogs of DDT, such as methoxychlor. Toxicological methods for the determination of the topical LD50 values to adult female SNAIDM and PSR houseflies, Musca domestica L. and to Phormia regina, and LC50 values to clex pipiens quinquefas ciatus Say, and Anopheles albimanus Weid mosquitoes were described by Metcalf et al., 44 Bull. World Health Org. 363 (1971). The methods for evaluation of metabolism by mouse liver homogenate and by female RSP housefly and salt-marsh caterpillar larvae Estigmene acrea Drury, were described by Metcalf et al., 5 J. Environ. Sci. Tech. 709 (1971).
(§2) The synergistic ratios or SR values (LD50 alone/ LD50 synergized with piperonyl butoxide) shown in Table II indicate the role of the multifunction oxidase (MFO) in detoxifying the individual compounds. Since piperonyl butoxide serves to block the action of MFO, the synergized LD50 values express the intrinsic toxicity of the compounds. With the detoxifying action of MFO enzymes blocked, the intrinsic toxicity of the compounds can thus be measured.

[2] = test system: Musca domestica Rsp; assay: Topical toxicity to adult female Rsp (resistant) houseflies, alone and with piperonyl butoxide; assay type: in vivo, Musca domestica L.; conditions: for SR (synergistic ratio), Musca domestica Rsp: LD50 alone / LD50 synergized with piperonyl butoxide; for LD50: Musca domestica, alone; for LD50 / Topical LD50, Musca domestica Rsp, pb: Rsp strain, topical; for Topical LD50, Musca domestica Rsp, pb: synergized with piperonyl butoxide (pb)
Procedure: as §1, §2

[3] = test system: Phormia regina; assay: Topical toxicity to Phormia regina, alone and with piperonyl butoxide; assay type: in vivo; conditions: for SR (synergistic ratio), Phormia regina: LD50 alone / LD50 synergized with piperonyl butoxide; for LD50: Phormia regina, alone; for LD50 / Topical LD50, Phormia regina, pb: topical; for Topical LD50, Phormia regina, pb: synergized with piperonyl butoxide (pb); for toxicity to Phormia: in vivo
Procedure: as §1, §2

[4] = test system: Culex fatigans larvae; assay: Toxicity to Culex mosquito larvae; assay type: in vivo
Procedure: as §1

[5] = test system: Anopheles albimanus larvae; assay: Toxicity to Anopheles albimanus mosquito larvae; assay type: in vivo
Procedure: as §1

[6] = test system: multifunction oxidase (MFO) enzymes; assay: Biodegradability / metabolism by multifunction oxidase (MFO) enzymes (insects, mice, model ecosystem); assay type: in vitro ADME; conditions: inferred from SR values
Description: (§3) It has been found from metabolic studies on insects, and mice, using a model ecosystem and the methods described in Kapoor, et al., 18(6) J.Agr., Food Chem. 1145 (1970), Metcalf, et al., J. Environ. Sci. Technol. 709 (1971) and also in the copending application of Metcalf et al., "Insecticidal Biodegradable Analogues of DDT", Ser. No. 147,241, filed May 26, 1971, and having a common assignee with the present application, that certain p,p'-disubstituted α-trichloromethylbenzylphenyl ethers with various substituent groups are readily attacked by multifunction oxidase (MFO) enzymes, and thus are substantially biodegradable.
as §1, with “709 (1971). […]” for “709 (1971).”

[7] = test system: insects; conditions: relative to DDT where stated; cited from earlier work
[8] = test system: multifunction oxidase (MFO) enzymes; conditions: cited from earlier work
[9] = test system: animals; conditions: prior art; cited from earlier work
[10] = cited from earlier work
[11] = test system: insects; assay: General insecticidal activity (house flies, blow fly, mosquitoes and other insects); assay type: in vivo; conditions: comparison among the 9 ethers of Table II
Description: as §3, §1

[12] = test system: mosquito larvae; assay: Toxicity to mosquito larvae (general statement); conditions: in vivo
Procedure: as §1

Row | Compound | SR (synergistic ratio), Musca domestica SNAIDM [1] | LD50 [1] | Topical LD50, Musca domestica SNAIDM, pb [1] | SR (synergistic ratio), Musca domestica Rsp [2] | LD50 [2] | Topical LD50, Musca domestica Rsp, pb [2] | SR (synergistic ratio), Phormia regina [3] | LD50 [3] | Topical LD50, Phormia regina, pb [3] | LC50 Culex fatigans larvae [4] | LC50 Anopheles albimanus larvae [5] | also measured
1 | COc1ccc(OC(c2ccc(OC)cc2)C(Cl)(Cl)Cl)cc1 (stereo not drawn) [II, α-trichloromethyl-p-methoxybenzyl p-methoxyphenyl ether] | 22 | 300 mg/kg | 14.0 μg per g | > 8.7 | > 500 mg/kg | 57.5 μg per g | 1.5 | 125 mg/kg | 82.5 μg per g | 0.51 ppm | 0.10 ppm | detoxication in susceptible and resistant houseflies [6]: rapid detoxication
2 | CSc1ccc(C(c2ccc(SC)cc2)C(Cl)(Cl)Cl)cc1 [methiochlor, 1,1,1-trichloro-2,2-bis-(p-methiophenyl) ethane] |  |  |  |  |  |  |  |  |  |  |  | insecticidal activity of prior art compounds [7]: considerably less insecticidal activity than DDT towards other species of insects; biodegradability / attack by MFO enzymes of prior art compounds [8]: readily attacked by MFO enzymes
3 | COc1ccc(C(c2ccc(OC)cc2)C(Cl)(Cl)Cl)cc1 [methoxychlor, 1,1,1-trichloro-,2,2-bis(p-methoxyphenyl)ethane] |  |  |  |  |  |  |  |  |  |  |  | insecticidal activity of prior art compounds [7]: considerably less insecticidal activity than DDT towards other species of insects; accumulation in animal tissues [9]: not generally accumulated in animal tissues; biodegradability / attack by MFO enzymes of prior art compounds [8]: readily attacked by MFO enzymes
4 | Clc1ccc(C(c2ccc(Cl)cc2)C(Cl)(Cl)Cl)cc1 [DDT, 1,1, 1 trichloro-2,2-bis(p-chlorophenyl)ethane] |  |  |  |  |  |  |  |  |  |  |  | lipid solubility [10]: high lipid solubility; water solubility [10]: very low water solubility; accumulation in animal tissues [9]: accumulation in the fatty or lipid tissues of animals
5 | CCOc1ccc(C(Oc2ccc(Cl)cc2)C(Cl)(Cl)Cl)cc1 (stereo not drawn) [VI, α-trichloromethyl-p-ethoxybenzyl p-chlorophenyl ether] | 1.9 | 18.5 mg/kg | 9.5 μg per g | 2.5 | 31 mg/kg | 12.5 μg per g | 1.0 | 31.2 mg/kg | 31.2 μg per g | 0.067 ppm | 0.044 ppm | housefly LD50 ([1]; comparison among compounds of Table II): lowest LD50 values to the housefly; toxicity to Phormia [3]: only slightly less toxic to Phormia than the p,p'-diethoxy compound IV; intrinsic toxicity / insecticidal effectiveness [11]: highest intrinsic toxicity; also recorded: most effective insecticide generally; toxicity to mosquito larvae [12]: only slightly less toxic
6 | Cc1ccc(C(c2ccc(C)cc2)C(Cl)(Cl)Cl)cc1 [methylchlor, 1,1,1-trichloro-2,2-bis(p-methylphenyl)ethane] |  |  |  |  |  |  |  |  |  |  |  | insecticidal activity of prior art compounds [7]: considerably less insecticidal activity than DDT towards other species of insects
7 | CCOc1ccc(OC(c2ccc(OCC)cc2)C(Cl)(Cl)Cl)cc1 (stereo not shown) [IV] | 2.1 | 27 mg/kg | 13.0 μg per g | 1.7 | 42 mg/kg | 24.5 μg per g | 1.0 | 16.5 mg/kg | 16.5 μg per g | 0.11 ppm | 0.07 ppm | toxicity to Phormia [3]: quite toxic to Phormia; intrinsic toxicity / insecticidal effectiveness [11]: highest intrinsic toxicity
8 | COc1ccc(C(Oc2ccc(C)cc2)C(Cl)(Cl)Cl)cc1 (stereo not shown) [IX] | > 13 | > 500 mg/kg | 39.0 μg per g | > 4 | > 500 mg/kg | 135 μg per g |  | > 250 mg/kg | > 250 μg per g | 0.65 ppm | > 1.0 ppm | 
9 | COc1ccc(C(Oc2ccc(Cl)cc2)C(Cl)(Cl)Cl)cc1 (stereo not shown) [V] | 6.3 | 108 mg/kg | 17.0 μg per g | 1.6 | 130 mg/kg | 82.5 μg per g | 1.8 | 205 mg/kg | 115 μg per g | 0.14 ppm | 0.038 ppm | 
10 | Cc1ccc(OC(c2ccc(C)cc2)C(Cl)(Cl)Cl)cc1 (stereo not shown) [III] | 2.9 | 265 mg/kg | 90 μg per g | > 3 | > 500 mg/kg | 145 μg per g | 1.35 | 135 mg/kg | 100 μg per g | 0.12 ppm | 0.18 ppm | 
11 | CCOc1ccc(C(Oc2ccc(C)cc2)C(Cl)(Cl)Cl)cc1 (stereo not shown) [VIII] | 3.5 | 72.5 mg/kg | 20.5 μg per g | 2.9 | 65 mg/kg | 22.0 μg per g | 1.5 | 46.2 mg/kg | 30.0 μg per g | 0.18 ppm | 0.066 ppm | 
12 | ClC(Cl)=C(c1ccc(Cl)cc1)c1ccc(Cl)cc1 [DDE, 1,1-dichloro-2,2-bis(p-chlorophenyl) ethylene] |  |  |  |  |  |  |  |  |  |  |  | biodegradability / attack by MFO enzymes of prior art compounds [8]: do not function on DDT and its metabolic derivatives DDE and DDD (or TDE)
13 | Clc1ccc(OC(c2ccc(Cl)cc2)C(Cl)(Cl)Cl)cc1 (stereo not drawn) [I, α-trichloromethyl-p-chlorobenzyl p-chlorophenyl ether] | 1.0 | 90 mg/kg | 90 μg per g | > 3.6 | > 500 mg/kg | 180 μg per g |  | > 250 mg/kg | > 250 μg per g | 0.035 ppm | 0.014 ppm | toxicity to mosquito larvae [12]: the most toxic
14 | CCOc1ccc(C(Oc2ccc(OC)cc2)C(Cl)(Cl)Cl)cc1 (stereo not shown) [VII] | 9.0 | 45 mg/kg | 5.0 μg per g | 6.4 | 90 mg/kg | 14.0 μg per g | 1.9 | 30 mg/kg | 16.0 μg per g | 0.14 ppm | 0.034 ppm | toxicity to Phormia [3]: quite toxic to Phormia; intrinsic toxicity / insecticidal effectiveness [11]: highest intrinsic toxicity
15 | Clc1ccc(C(c2ccc(Cl)cc2)C(Cl)Cl)cc1 [DDD, 1,1-dichloro-2,2-bis(p-chlorophenyl)ethane] |  |  |  |  |  |  |  |  |  |  |  | biodegradability / attack by MFO enzymes of prior art compounds [8]: do not function on DDT and its metabolic derivatives DDE and DDD (or TDE)
